Several values for one entry are separate records, joined by “and”; a condition that tells them apart may be missing. Equal values may be shown once. Read-outs that look alike come from different tables or passages of the source.
Tests used:
[1] = system: HRV-A2; test: microbe, parasite or virus in culture; type: cell-based, human rhinovirus; settings: for EC50: Human rhinovirus sp.
[2] = system: HRV-B14; test: microbe, parasite or virus in culture; type: cell-based, human rhinovirus
[3] = system: CV-B3; test: microbe, parasite or virus in culture; type: cell-based, coxsackievirus B3; settings: Enterovirus B
[4] = system: EV-A71 (strain BrCr); type: cell-based, enterovirus A71
[5] = system: CV-B3 (strain Nancy); type: cell-based, coxsackievirus B3
[6] = system: EV-D68 (strain Fermon); type: cell-based, enterovirus D68
[7] = system: HRV-A2; type: cell-based, human rhinovirus
[8] = system: HRV-B14; type: cell-based, human rhinovirus; settings: compound concentration 0.1 µM
[9] = system: HeLa R19 cells
[10] = in vitro; settings: human
[11] = in vitro; settings: monkey

## COc1ccc(N(Cc2ccc(F)cc2)C(=O)c2ccco2)cc1 [Compound 1, N-(4-fluorobenzyl)-N-(4-methoxyphenyl)furan-2-carboxamide]
[1]; Concentration 3.3333 µM
  Figure 7 dose-response raw data, HRV-A2 (triplicate values): 6.087 and 4.436 and 5.983
[1]; Concentration 33.3333 µM
  Figure 7 dose-response raw data, HRV-A2 (triplicate values): 4.849 and 8.666 and 8.769
[1]; Concentration 100 µM
  Figure 7 dose-response raw data, HRV-A2 (triplicate values): 4.849 and 8.666 and 8.769
[1]; HRVA2, HeLa R19, read-out: EC50 HRV-A2
  EC50: > 30 µM
[1]; HRVA2, HeLa R19, read-out: EC50 HRV-A2 Average
  EC50: > 30 µM
[1]; HRVA2, HeLa R19, read-out: EC50 HRV-A2 Experiement 3
  EC50: > 30 µM
[1]; HRVA2, HeLa R19, read-out: EC50 HRV-A2 Experiment 1
  EC50: > 30 µM
[1]; HRVA2, HeLa R19, read-out: EC50 HRV-A2 Experiment 2
  EC50: > 30 µM
[2]
  inhibition of HRV-B14 replication (in words): antiviral activity
[2]; Concentration 0.0046 µM
  Figure 7 dose-response raw data, HRV_B14 (triplicate values): 15.2266 and 14.5606
[2]; Concentration 0.0137 µM
  Figure 7 dose-response raw data, HRV_B14 (triplicate values): 15.2266 and 14.5606
[2]; Concentration 0.0412 µM
  Figure 7 dose-response raw data, HRV_B14 (triplicate values): 15.2266 and 14.5606 and 20.943
[2]; Concentration 0.3704 µM
  Figure 7 dose-response raw data, HRV_B14 (triplicate values): 23.8668 and 30.9898 and 27.193
[2]; Concentration 1.1111 µM
  Figure 7 dose-response raw data, HRV_B14 (triplicate values): 29.6577 and 30.8788 and 30.9898
[2]; Concentration 3.3333 µM
  Figure 7 dose-response raw data, HRV_B14 (triplicate values): 15.2266 and 14.5606
[2]; Concentration 11.1111 µM
  Figure 7 dose-response raw data, HRV_B14 (triplicate values): 71.9426 and 62.9417 and 74.4773
[2]; Concentration 33.3333 µM
  Figure 7 dose-response raw data, HRV_B14 (triplicate values): 100.034 and 89.1582 and 86.605
[2]; Concentration 100 µM
  Figure 7 dose-response raw data, HRV_B14 (triplicate values): 104.147 and 89.1582 and 86.605
[2]; Human rhinovirus sp., HRVB14, HeLa R19, read-out: EC50 Exp1
  EC50: 10.8 µM
[2]; Human rhinovirus sp., HRVB14, HeLa R19, read-out: EC50 Exp2
  EC50: 13.9 µM
[2]; Human rhinovirus sp., HRVB14, HeLa R19, read-out: EC50 HRV-B14
  EC50: 10.8 ± 1.27 µM
[2]; Human rhinovirus sp., HRVB14, HeLa R19, read-out: EC50 HRV-B14 Experiement 3
  EC50: 11.1 µM
[2]; Human rhinovirus sp., HRVB14, HeLa R19, read-out: EC50 HRV-B14 Experiment 1
  EC50: 12.2 µM
[2]; Human rhinovirus sp., HRVB14, HeLa R19, read-out: EC50 HRV-B14 Experiment 2
  EC50: 9.16 µM
[2]; read-out: EC50 HRV-B14
  EC50: 12.4 ± 1.51 µM
[3]; CVB3, HAP1, read-out: EC50 Hap1 Average
  EC50: 1.57 µM
[3]; CVB3, HAP1, read-out: Exp 1 EC50 Hap1
  EC50: 1.49 µM
[3]; CVB3, HAP1, read-out: Exp 2 EC50 Hap1
  EC50: 1.65 µM
[4]; compound concentration 0.001 µM
  virus titer, TCID50/ml (Figure 2A): 316228 TCID50/ml
[4]; compound concentration 0.01 µM
  virus titer, TCID50/ml (Figure 2A): 316228 TCID50/ml
[4]; compound concentration 0.1 µM
  virus titer, TCID50/ml (Figure 2A): 316228 TCID50/ml
[4]; compound concentration 0.3 µM
  virus titer, TCID50/ml (Figure 2A): 316228 TCID50/ml
[5]; compound concentration 1 µM
  virus titer, TCID50/ml (Figure 2A): 1000000000 TCID50/ml
[5]; compound concentration 10 µM
  virus titer, TCID50/ml (Figure 2A): 31622.8 TCID50/ml and 16982.4 TCID50/ml and 21379.6 TCID50/ml
[6]; compound concentration 3 µM
  virus titer, TCID50/ml (Figure 2A): 31622.8 TCID50/ml and 21379.6 TCID50/ml and 35481.3 TCID50/ml
[6]; compound concentration 10 µM
  virus titer, TCID50/ml (Figure 2A): 31622.8 TCID50/ml and 21379.6 TCID50/ml and 35481.3 TCID50/ml
[6]; compound concentration 100 µM
  virus titer, TCID50/ml (Figure 2A): 31622.8 TCID50/ml and 21379.6 TCID50/ml and 35481.3 TCID50/ml
[7]; compound concentration 0.1 µM
  virus titer, TCID50/ml (Figure 2A): 316278 TCID50/ml and 312278 TCID50/ml
[7]; compound concentration 0.3 µM
  virus titer, TCID50/ml (Figure 2A): 169824 TCID50/ml and 100000 TCID50/ml
[7]; compound concentration 3 µM
  virus titer, TCID50/ml (Figure 2A): 354813 TCID50/ml
[7]; compound concentration 100 µM
  virus titer, TCID50/ml (Figure 2A): 169824 TCID50/ml and 188844 TCID50/ml
[7]; compound concentration 150 µM
  virus titer, TCID50/ml (Figure 2A): 354813 TCID50/ml and 588844 TCID50/ml
[8]
  virus titer, TCID50/ml (Figure 2A): 10000000 TCID50/ml
[9]
  cytotoxic effect (in words): did not show any adverse cytotoxic effect
[10]; CC50
  CC50: > 30 µM
[10]; CC50 Average
  CC50: > 30 µM
[10]; CC50 Experiement 3
  CC50: > 30 µM
[10]; CC50 Experiment 1
  CC50: > 30 µM
[10]; CC50 Experiment 2
  CC50: > 30 µM
[10]; CC50 HelaR19 Average
  CC50: 43.9 µM
[10]; Exp 1 CC50
  CC50: > 30 µM
[10]; Exp 1 CC50 HelaR19
  CC50: 40.4 µM
[10]; Exp2 CC50
  CC50: > 30 µM
[10]; Exp 2 CC50 HelaR19
  CC50: 47.4 µM
[11]; CC50
  CC50: 50.65 ± 0.32 µM
[11]; CC50 BGM Average
  CC50: 50.6 µM
[11]; Exp 1 CC50 BGM
  CC50: 51 µM
[11]; Exp 2 CC50 BGM
  CC50: 50.3 µM
